Data as given in patent US20020055488A1, “Prevention and treatment of streptococcal and staphylococcal infection” (priority 2000, published 2002).

Tests used:
[1] = system: Group A streptococcus (GAS); assay: GAS attachment to murine keratinocyte cell line PAM2.12 with exogenous hyaluronic acid; assay type: cell-based, Streptococcus pyogenes; conditions: for inhibition of GAS attachment to PAM2.12 keratinocytes: polysaccharide added together with GAS, 45 minutes incubation
Method: For bacterial adherence assays, keratinocytes were seeded at 10^5 cells per well in collagen-coated tissue culture wells (Nalge Nunc International, Naperville, Ill.), incubated for 3 days at 34° C. in 8% CO2, washed, and overlaid with medium containing 10^6 CFU of GAS per well. After incubation for 1 hour at 34° C. in 8% CO2 the keratinocyte monolayers were washed twice to remove nonadherent bacteria, then the number of cell-associated bacteria was determined by quantitative culture after releasing the keratinocytes with trypsin and lysing them in sterile water, experiments testing the effects of exogenous hyaluronic acid on GAS adherence were performed using the mouse keratinocyte cell line, PAM 2.12 (Song, I. S. 2000, Exp. Dermatol. 9:42-52). Cells were seeded in collagen-coated tissue culture wells at 10^5 cells per well, cultured for 3 days at 37° C. in 5% CO2, then inoculated with 10^6 CFU of GAS per well in medium containing exogenous hyaluronic acid (from rooster comb, Sigma Chemicals, St. Louis, Mo.), no inhibitor, or a control polysaccharide, alginic acid, a high-molecular-weight polymer of mannuronic acid and guluronic acid (Protonal Durvillea Alginate, Pronova. Biopolymer, Inc., Portsmouth, N.H.). Cells were incubated for 45 minutes at 37° C. in 5% CO2, then processed for enumeration of adherent bacteria as described above. In experiments to test whether exogenous hyaluronic acid could promote dissociation of GAS attached to keratinocytes, GAS were allowed to attach to keratinocytes in the absence of inhibitor; […], no inhibitor, or alginic acid. After 45 minutes of incubation, the number of adherent bacteria was enumerated as described above.
To investigate the specificity of the interaction between the GAS capsule and CD44 on epithelial cells, the ability of exogenous hyaluronic acid to compete with GAS for binding to murine keratinocytes was examined. Addition of exogenous hyaluronic acid inhibited GAS attachment to the murine keratinocyte cell line PAM2.12 by >95% (P<0.03, FIG. 5). Alginic acid, another high molecular weight acidic polysaccharide, had no effect, supporting the hypothesis that adherence depends on a specific interaction between the GAS hyaluronic acid capsule and CD44.

[2] = system: Group A streptococcus (GAS); assay: GAS pharyngeal colonization in mice after intranasal pretreatment with hyaluronic acid; assay type: in vivo, Streptococcus pyogenes; conditions: intranasal 20 μl of 1 mg/ml, 5 hours prior to GAS inoculation, compared to PBS or alginic acid pretreated, 3 days
Method: For pharyngeal colonization experiments, 4 to 6 week-old female mice were anesthetized by inhalation of methoxyflurane, then inoculated intranasally with approximately 5×10^6 CFU of GAS in 20 μl phosphate-buffered saline, pH 7.4. Throat swabs were collected from anesthetized mice daily and were plated on Todd-Hewitt-blood agar containing streptomycin 500 μg/ml to inhibit growth of normal flora. For some experiments, the bacterial inoculum was suspended in phosphate-buffered saline containing 50μg of mAb, either KM81, a rat anti-mouse CD44 mAb (Miyake, K. 1990, J. Exp. Med. 171:477-488), or 4H1, an isotype-matched control monoclonal antibody directed to Pseudomonas aeruginosa lipopolysaccharide (donated by Michael Preston, Brigham and Women's Hospital, Boston, Mass.). Both antibodies were purified by protein G affinity chromatography (GammaBind Plus Sepharose, Amersham Pharmacia Biotech, Piscataway, N.J.) prior to use.
Differences in attachment of GAS to keratinocytes were evaluated Using the Mann Whitney U test (Instat version 1.12, GraphPad Software, Inc. San Diego, Calif.). Repeated measures logistic regression was used to test for the effect of anti-CD44 mAb or erogenous hyaluronic acid treatment on the proportion of mice with positive throat cultures over three days of observation (Zeger, S. L. et al. 1986, Biometrics. 42:121-130). […]

[3] = system: Group A Streptococcus (GAS, strain 950771); assay: Bacterial binding to human keratinocyte monolayers after pre-incubation, GAS; assay type: cell-based, Streptococcus pyogenes; conditions: 10 bacteria per keratinocyte, 1 hour, alginate control
Method: (§1) Keratinocyte monolayers were pre-incubated with alginate (AL, solid bars) or hyaluronic cid (HA, hatched bars) prior to surface inoculation with either Group A Streptococcus (GAS, strain 950771), Group B Streptococcus (GBS, strain 515), Streptococcus pneumoniae (S. pneumo, type 6), or Staphylococcus aureus (S. aureus, type 8) at a multiplicity of infection of 10 bacteria per keratinocyte for 1 hour.

[4] = system: Group B Streptococcus (GBS, strain 515); assay: Bacterial binding to human keratinocyte monolayers after pre-incubation, GBS; assay type: cell-based; conditions: 10 bacteria per keratinocyte, 1 hour, alginate control
Method: as §1

[5] = system: Streptococcus pneumoniae (S. pneumo, type 6); assay: Bacterial binding to human keratinocyte monolayers after pre-incubation, S. pneumoniae; assay type: cell-based; conditions: 10 bacteria per keratinocyte, 1 hour, alginate control
Method: as §1

[6] = system: Staphylococcus aureus (S. aureus, type 8); assay: Bacterial binding to human keratinocyte monolayers after pre-incubation, S. aureus; assay type: cell-based; conditions: 10 bacteria per keratinocyte, 1 hour, alginate control
Method: as §1

Substance | inhibition of GAS attachment to PAM2.12 keratinocytes [1] | reduction of GAS attachment to keratinocytes ([1]; addition of hyaluronic acid delayed for 2 hours) | reduction in bacterial attachment to keratinocytes ([1]; hyaluronic acid added up to 45 minutes after adding GAS) | reduction of GAS pharyngeal colonization (positive throat cultures) [2] | inhibition of binding of GAS to human keratinocytes [3] | inhibition of binding of GBS to human keratinocytes [4] | inhibition of binding of S. pneumoniae to human keratinocytes [5] | inhibition of binding of S. aureus to human keratinocytes [6]
alginic acid | had no effect |  |  |  |  |  |  | 
hyaluronic acid | > 95% | 70-80% | > 90% | 60 to 80% | more than 80% | more than 80% | more than 80% | more than 80%
